Measured values published in publication PMC7215373, “Design, Synthesis, and Anticancer Evaluation of Novel Indole Derivatives of Ursolic Acid as Potential Topoisomerase II Inhibitors” (International Journal of Molecular Sciences, 2020).

Columns and labels:
[1] = molecular target: T1, DNA topoisomerase I (Bos taurus, UniProt F1MN93); assay: Topoisomerase I relaxation assay (supercoiled pBR322); type: biochemical; details: for inhibition at 100 µM: 100 μM compound, read-out: Topo I Inhibition (%) 100 μM; for inhibition at 20 µM: 20 μM compound, read-out: Topo I Inhibition (%) 20 μM
T1 construct: purchased TaKaRa, Kyoto, Japan
T1 sequence (F1MN93 1-767): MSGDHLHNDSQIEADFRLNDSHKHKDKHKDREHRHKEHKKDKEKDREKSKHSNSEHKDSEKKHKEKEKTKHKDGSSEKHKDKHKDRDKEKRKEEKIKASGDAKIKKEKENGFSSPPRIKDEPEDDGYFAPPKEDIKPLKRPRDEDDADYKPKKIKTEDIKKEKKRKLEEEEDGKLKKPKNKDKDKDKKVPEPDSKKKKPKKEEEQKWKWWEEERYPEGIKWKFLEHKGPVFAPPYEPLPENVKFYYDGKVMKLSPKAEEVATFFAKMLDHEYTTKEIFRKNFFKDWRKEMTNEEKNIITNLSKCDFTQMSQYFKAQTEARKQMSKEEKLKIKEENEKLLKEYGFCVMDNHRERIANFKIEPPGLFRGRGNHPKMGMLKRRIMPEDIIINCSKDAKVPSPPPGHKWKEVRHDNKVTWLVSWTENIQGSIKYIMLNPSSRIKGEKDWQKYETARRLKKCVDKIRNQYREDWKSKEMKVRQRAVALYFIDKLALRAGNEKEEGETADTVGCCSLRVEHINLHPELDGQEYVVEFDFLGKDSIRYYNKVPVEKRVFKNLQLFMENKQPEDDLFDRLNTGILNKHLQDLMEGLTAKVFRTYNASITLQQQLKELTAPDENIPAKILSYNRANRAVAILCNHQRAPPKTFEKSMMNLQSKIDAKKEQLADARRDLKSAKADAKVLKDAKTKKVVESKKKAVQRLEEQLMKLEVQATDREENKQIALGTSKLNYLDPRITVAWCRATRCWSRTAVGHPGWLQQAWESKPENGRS
Protocol: The effect of the tested compounds on Topo I and II activities were evaluated by Topo I/II relaxation assays. The reaction products, relaxed DNA could be distinguished from supercoiled DNA by gel electrophoresis and visualized using gel imaging system. The activity of DNA topoisomerase I (TaKaRa, Kyoto, Japan) was determined by measuring the relaxation of supercoiled DNA pBR322 [32]. Camptothecin was used as a positive control. The reaction mixture was prepared according to the manufacture's protocol, and incubated at 37 °C for 30 min. The reactions were terminated by adding dye solution containing 1% SDS, 0.02% bromophenol blue and 50% glycerol. The mixtures were applied to 1% agarose gel and subjected to electrophoresis for 1 h, in 1× TAE buffer (40 mM Tris-acetate, 1 mM EDTA). Gels were stained for 30 min in 60 mL 1× TAE buffer with ethidium bromide (0.5 μg/mL). DNA bands were visualized by transillumination with UV light and then photographed by a Gel Doc XR+ System (BIO-RAD, Hercules, CA, USA).

[2] = molecular target: T2, Human Topoisomerase IIα (Homo sapiens, UniProt P11388); assay: Topoisomerase II relaxation assay (supercoiled pBR322); type: biochemical; details: for inhibition at 20 µM: 20 μM compound, read-out: Topo II Inhibition (%) 20 μM; for inhibition at 100 µM: 100 μM compound, read-out: Topo II Inhibition (%) 100 μM
T2 construct: purchased USB, Affymetrix, Waltham, MA, USA
Protocol: The effect of the tested compounds on Topo I and II activities were evaluated by Topo I/II relaxation assays. The reaction products, relaxed DNA could be distinguished from supercoiled DNA by gel electrophoresis and visualized using gel imaging system. Human Topoisomerase IIα activity was detected by measuring the relaxation of supercoiled pBR322 plasmid DNA [22]. […] For inhibition studies, the compounds were pre-incubated with human Topo IIα and DNA for 15 min. Compounds were used at the appropriate concentrations by dissolving in 2% (v/v) DMSO. DMSO didn't show detrimental effect on the enzyme activity at concentration up to 2% (v/v). Reaction mixture was incubated at 37 °C for 30 min and stopped by the addition of 7 mM EDTA. Reaction product was mixed with DNA loading dye and electrophoresed on 1% TAE-Agarose. The gel was stained with ethidium bromide (0.5 μg/mL) for 30 min, destained twice in 1× TAE buffer, and then visualized using a BIO-RAD Gel Doc XR+ System. Etoposide (VP-16) was co-assayed as a positive control.

[3] = system: LO2 cells; assay: MTT cytotoxicity assay, normal hepatocyte LO2; type: cell-based; details: Homo sapiens, L02, 48 h exposure, normal hepatocyte cell line
Protocol: (§1) The in vitro cytotoxic activities of synthesized compounds were evaluated against two human hepatocarcinoma cell lines (SMMC-7721 and HepG2) and the human normal hepatocyte cell line (LO2) via MTT assay. All tested compounds were dissolved in DMSO and the stock solutions were diluted by DMEM medium before treatment of the cultured cells. […] Cell lines were obtained from American Tissue Culture Collection (ATCC). Briefly, different tumor cells were grown in DMEM medium supplemented with 10% fetal bovine serum, penicillin (100 U/mL), and streptomycin (50 μg/mL). Cells were harvested at log phase of growth and seeded in 96-well plates (100 μL/well at a density of 2 × 10^5 cells/mL). After 24 h incubation at 37 °C and 5% CO2 to allow cell attachment, cultures were exposed to various concentrations of the isolated compounds for 48 h. Finally, MTT solution (2.5 mg/mL in PBS) was added (40 μL/well). Plates were further incubated for 4 h at 37 °C, and the formazan crystals formed were dissolved by adding 150 μL/well of DMSO. Absorption at 570 nm was measured with an ELISA plate reader. […] Doxorubicin, camptothecin, and etoposide (VP-16) were co-assayed as positive controls.

[4] = system: SMMC-7721 cells; assay: MTT cytotoxicity assay, SMMC-7721; type: cell-based, human; details: 48 h exposure
Protocol: as §1

[5] = system: HepG2 cells; assay: MTT cytotoxicity assay, HepG2; type: cell-based, human; details: 48 h exposure
Protocol: as §1

T2 sequence (P11388 whole entry): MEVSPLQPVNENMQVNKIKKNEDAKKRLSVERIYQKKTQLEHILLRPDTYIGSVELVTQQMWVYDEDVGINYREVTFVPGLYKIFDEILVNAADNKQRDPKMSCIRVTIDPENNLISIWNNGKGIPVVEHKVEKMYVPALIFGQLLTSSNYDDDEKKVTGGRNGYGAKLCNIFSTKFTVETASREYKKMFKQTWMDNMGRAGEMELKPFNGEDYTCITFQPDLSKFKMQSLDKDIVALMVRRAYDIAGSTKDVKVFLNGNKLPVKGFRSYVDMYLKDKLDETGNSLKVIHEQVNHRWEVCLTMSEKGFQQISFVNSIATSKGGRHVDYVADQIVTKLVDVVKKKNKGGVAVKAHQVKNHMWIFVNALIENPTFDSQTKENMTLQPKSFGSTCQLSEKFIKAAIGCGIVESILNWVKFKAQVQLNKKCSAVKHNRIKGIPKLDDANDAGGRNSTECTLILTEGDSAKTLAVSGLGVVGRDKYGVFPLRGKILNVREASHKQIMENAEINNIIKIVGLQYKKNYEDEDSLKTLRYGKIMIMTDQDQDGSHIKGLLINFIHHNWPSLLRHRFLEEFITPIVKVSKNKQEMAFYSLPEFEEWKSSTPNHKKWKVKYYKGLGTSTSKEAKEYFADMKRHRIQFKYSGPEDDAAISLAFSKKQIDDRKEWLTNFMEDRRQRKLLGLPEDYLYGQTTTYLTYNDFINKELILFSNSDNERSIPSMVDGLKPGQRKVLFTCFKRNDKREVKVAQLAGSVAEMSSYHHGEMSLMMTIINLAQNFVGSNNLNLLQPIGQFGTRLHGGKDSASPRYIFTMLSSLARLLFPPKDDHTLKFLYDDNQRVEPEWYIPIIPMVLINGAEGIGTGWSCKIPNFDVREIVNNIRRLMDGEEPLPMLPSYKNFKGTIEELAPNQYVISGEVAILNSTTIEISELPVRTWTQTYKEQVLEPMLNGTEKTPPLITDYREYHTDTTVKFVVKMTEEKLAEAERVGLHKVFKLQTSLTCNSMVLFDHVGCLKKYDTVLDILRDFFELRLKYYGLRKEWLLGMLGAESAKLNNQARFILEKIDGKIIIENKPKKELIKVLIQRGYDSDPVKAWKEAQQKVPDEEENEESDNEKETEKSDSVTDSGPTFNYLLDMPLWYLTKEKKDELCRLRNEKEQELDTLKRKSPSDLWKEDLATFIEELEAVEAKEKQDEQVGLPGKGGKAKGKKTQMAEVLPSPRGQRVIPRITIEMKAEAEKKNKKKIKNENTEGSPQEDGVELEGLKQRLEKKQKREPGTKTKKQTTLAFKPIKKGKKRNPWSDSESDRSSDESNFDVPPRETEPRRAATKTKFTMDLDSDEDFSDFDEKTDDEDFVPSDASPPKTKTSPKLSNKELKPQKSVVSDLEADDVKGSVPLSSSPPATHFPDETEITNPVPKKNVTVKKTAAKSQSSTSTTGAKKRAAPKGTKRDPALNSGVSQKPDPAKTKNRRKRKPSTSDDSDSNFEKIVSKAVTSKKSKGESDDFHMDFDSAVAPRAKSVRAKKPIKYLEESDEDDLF

Compound | inhibition at 100 µM [1] | inhibition at 20 µM [2] | inhibition at 100 µM [2] | IC50 [3] | melting point | IC50 ([4]; Homo sapiens, SMMC-7721, 48 h) | IC50 ([5]; Homo sapiens, HepG2, 48 h) | inhibition at 20 µM [1] | IC50 [4] | IC50 [5]
Cc1ccc2[nH]c3c(c2c1)C[C@@]1(C)C(CC[C@]2(C)C1CC=C1C4[C@@H](C)[C@H](C)CC[C@]4(C(=O)NCCCNC(=O)[C@]45CC[C@@H](C)[C@H](C)C4C4=CCC6[C@@]7(C)Cc8c([nH]c9ccc(C)cc89)C(C)(C)C7CC[C@@]6(C)[C@]4(C)CC5)CC[C@]12C)C3(C)C (stereo partly shown) [7b, N,N′-(propane-1,3-diyl)-bis(5′-methyl-1′H-ursa-2,12-dieno[3,2-b]indol-28-carboxamide)] | 2% | 9.8% | 17.8% | > 50 µM | 276 to 278 °C | > 50 µM | > 50 µM |  |  | 
Cc1ccc2[nH]c3c(c2c1)C[C@@]1(C)C(CC[C@]2(C)C1CC=C1C4[C@@H](C)[C@H](C)CC[C@]4(C(=O)NCCN(C)C)CC[C@]12C)C3(C)C (stereo partly shown) [4b, N-(2-(Dimethylamino)ethyl)-5′-methyl-1′H-ursa-2,12-dieno[3,2-b]indol-28-carboxamide] | 3.7% | 36.9% | 68% | 31.1 ± 2.63 µM | 166 to 168 °C | 4.42 ± 0.71 µM | 4.11 ± 0.55 µM |  |  | 
Cc1ccc2[nH]c3c(c2c1)C[C@@]1(C)C(CC[C@]2(C)C1CC=C1C4[C@@H](C)[C@H](C)CC[C@]4(C(=O)NCCCCNC(=O)[C@]45CC[C@@H](C)[C@H](C)C4C4=CCC6[C@@]7(C)Cc8c([nH]c9ccc(C)cc89)C(C)(C)C7CC[C@@]6(C)[C@]4(C)CC5)CC[C@]12C)C3(C)C (stereo partly shown) [7c, N,N′-(butane-1,4-diyl)-bis(5′-methyl-1′H-ursa-2,12-dieno[3,2-b]indol-28-carboxamide)] | 0% | 8.1% | 16.9% | > 50 µM | 255 to 258 °C | > 50 µM | > 50 µM |  |  | 
Cc1ccc2[nH]c3c(c2c1)C[C@@]1(C)C(CC[C@]2(C)C1CC=C1C4[C@@H](C)[C@H](C)CC[C@]4(C(=O)NCCN)CC[C@]12C)C3(C)C (stereo partly shown) [4a, N-(2-Aminoethyl)-5′-methyl-1′H-ursa-2,12-dieno[3,2-b]indol-28-carboxamide] | 15.1% | 25.9% | 69.7% | 29.6 ± 2.12 µM | 228 to 230 °C | 3.5 ± 0.61 µM | 3.31 ± 0.35 µM | 5.6% |  | 
Cc1ccc2[nH]c3c(c2c1)C[C@@]1(C)C(CC[C@]2(C)C1CC=C1C4[C@@H](C)[C@H](C)CC[C@]4(C(=O)NCCCCN4CCCCC4)CC[C@]12C)C3(C)C (stereo partly shown) [6d, N-(4-(Piperidin-1-yl)butyl)-5′-methyl-1′H-ursa-2,12-dieno[3,2-b]indol-28-carboxamide] | 0% | 32.8% | 72.5% | 18.7 ± 1.36 µM | 121 to 123 °C | 2.72 ± 0.31 µM | 2.31 ± 0.21 µM |  |  | 
Cc1ccc2[nH]c3c(c2c1)C[C@@]1(C)C(CC[C@]2(C)C1CC=C1C4[C@@H](C)[C@H](C)CC[C@]4(C(=O)NCCCN4CCOCC4)CC[C@]12C)C3(C)C (stereo partly shown) [5e, N-(3-Morpholinopropyl)-5′-methyl-1′H-ursa-2,12-dieno[3,2-b]indol-28-carboxamide] | 0% | 31.5% | 70.8% | 28.6 ± 0.76 µM | 108 to 110 °C | 3.75 ± 0.37 µM | 5.27 ± 0.67 µM |  |  | 
Cc1ccc2[nH]c3c(c2c1)C[C@@]1(C)C(CC[C@]2(C)C1CC=C1C4[C@@H](C)[C@H](C)CC[C@]4(C(=O)NCCN4CCN(C)CC4)CC[C@]12C)C3(C)C (stereo partly shown) [4f, N-(2-(4-Methylpiperazin-1-yl)ethyl)-5′-methyl-1′H-ursa-2,12-dieno[3,2-b]indol-28-carboxamide] | 0% | 31.3% | 73.7% | 18.3 ± 0.78 µM | 188 to 190 °C | ~1 µM | ~1 µM |  | 1.24 ± 0.16 µM | 1.35 ± 0.17 µM
Cc1ccc2[nH]c3c(c2c1)C[C@@]1(C)C(CC[C@]2(C)C1CC=C1C4[C@@H](C)[C@H](C)CC[C@]4(C(=O)NCCCN)CC[C@]12C)C3(C)C (stereo partly shown) [5a, N-(3-Aminopropyl)-5′-methyl-1′H-ursa-2,12-dieno[3,2-b]indol-28-carboxamide] | 24.5% | 31.2% | 72.3% | 21.3 ± 1.59 µM | 205 to 207 °C | 2.02 ± 0.21 µM | 2.45 ± 0.38 µM | 12.4% |  | 
Cc1ccc2[nH]c3c(c2c1)C[C@@]1(C)C(CC[C@]2(C)C1CC=C1C4[C@@H](C)[C@H](C)CC[C@]4(C(=O)NCCN4CCOCC4)CC[C@]12C)C3(C)C (stereo partly shown) [4e, N-(2-Morpholinoethyl)-5′-methyl-1′H-ursa-2,12-dieno[3,2-b]indol-28-carboxamide] | 0% | 26.8% | 63.3% | > 50 µM | 104 to 105 °C | 7.82 ± 0.78 µM | 10.7 ± 2.09 µM |  |  | 
